Paper PMC7259466 (bioRxiv, 2020)
Where two headings read alike, the source gives them in different places.

Tests used:
LC3B [1] = assay: LC3B immunostaining autophagy assay, average of four cell lines; type: cell-based; settings: for EC50: 16 h, read-out: Autophagy EC50
SARS-CoV-2 [2] = settings: similar CPE assay with SARS-CoV-2 in Vero-E6 cells; ref [61]; cited from earlier work
Vero E6 cells = settings: for cell toxicity: Vero E6, up to 30 μM; for cytotoxic: at all concentrations
Vero-E6 cells [3] = assay: Nuclei counts in autophagy assay in Vero-E6 cells; type: cell-based; settings: for cytotoxicity based on nuclei counts: highest concentrations (50 μM for all except for ROC-325 at 25 μM)
[4] = cited from earlier work; for Cmax: human plasma, clinically efficacious doses
in vitro = settings: African green monkey, CPE CC50, uninfected Vero E6, 72 h, Cell Titer-Glo
SARS-CoV-2 [5] = type: cell-based, SARS CoV-2 (USA_WA1/2020); settings: Vero-E6, up to 30 μM
Cell = type: cell-based
LC3B [6] = assay: LC3B immunostaining autophagy assay in Vero-E6 cells; type: cell-based; settings: ~16 h; for LC3B spot counts: Vero-E6, 50 μM – 0.02 μM
Vero-E6 cells [7] = settings: drug-repurposing screen in Vero-E6 cells; ref [61]; cited from earlier work
[8] = in monkey; ref [77]; cited from earlier work
acidic organelles = assay: LysoTracker Deep Red staining assay in Vero-E6 cells; type: cell-based; settings: Vero-E6, cell counts, highest concentration
LC3B [9] = assay: LC3B immunostaining autophagy assay in Huh-7.5 cells; type: cell-based, human

Row | SMILES | EC50 (LC3B [1]) | IC50 (SARS-CoV-2 [2]) | cell toxicity (Vero E6 cells) | cytotoxic (Vero E6 cells) | cytotoxicity based on nuclei counts (Vero-E6 cells [3]) | CC50 (in vitro) | activity against SARS-CoV-2 CPE (SARS-CoV-2 [5]) | CC50 at 16 h (Cell) | CC50 (Vero-E6 cells [7]) | LC3B spot counts (LC3B [6]) | also measured
1 | CCN(CC)CCCC(C)Nc1ccnc2cc(Cl)ccc12 (centres unmarked) [Chloroquine] | 3.29 ± 1.86 µM | 42 µM | no associated cell toxicity | less than 50% | not cytotoxic | > 30 µM |  |  |  |  | Vd ([4]; ref [78], [79]): 100 L/kg; bioavailable ([4]; ref [78], [79]): 75%
2 | CN(C)CCCN1c2ccccc2CCc2ccc(Cl)cc21 [Clomipramine] |  |  |  | less than 50% | not cytotoxic | > 30 µM | completely prevent SARS-CoV-2 CPE | > 50 µM | > 30 µM |  | increasing LC3B (LC3B [1]; all cell lines except for Vero-E6): effective; cytotoxicity (Vero E6 cells; at 30.0 μM): less than 20%; Cmax ([4]; ref [76]): 290 nM; Vd ([4]; ref [76]): high; submaximal increase of LC3B spot counts (LC3B [6]; Vero-E6, normalized to DMSO (0%) and CQ (100%)): 40%
3 | CCN(CC)CCNc1ccc(CO)c2sc3ccccc3c(=O)c12 [Hycanthone] | 7.35 ± 4.7 µM |  | cytotoxic at the highest concentrations |  |  |  | moderate levels of activity | 11.3 ± 2.73 µM |  | maximal spot counts | absorption [8]: well-absorbed; reduction of cell viability (Vero E6 cells; at 30 μM): ~100%; cells killed (Vero-E6 cells [3]; at 50 μM): approximately 60%
4 | CCN(CCO)CCCC(C)Nc1ccnc2cc(Cl)ccc12 (centres unmarked) [Hydroxychloroquine, hydroxychloroquine] | 6.55 ± 6.67 µM | 9.21 µM | no associated cell toxicity | less than 50% | not cytotoxic | > 30 µM |  | > 50 µM |  |  | Cmax ([4]; ref [80]): 1500 nM; T1/2 ([4]; ref [80]): ~40 days; absorption ([4]; ref [80]): rapid and complete absorption
5 | OC(c1cc(C(F)(F)F)nc2c(C(F)(F)F)cccc12)C1CCCCN1 (centres unmarked) [Mefloquine] |  | 7.11 µM | cytotoxic at the highest concentrations |  | completely toxic |  | moderate levels of activity | 18.4 ± 2.08 µM | > 18.5 µM | ineffective | toxicity in LysoTracker assay (acidic organelles): toxic at the highest concentration; cytotoxicity (Vero E6 cells; at 15.0 to 30.0 μM): 100%; EC50 (LC3B [9]; Homo sapiens, Huh7.5, read-out: Autophagy EC50): 7.3 µM; LC3B spot counts (LC3B [9]; Huh-7.5): increased LC3B spot counts even at low concentrations; Cmax ([4]; ref [81]): 4500 nM
6 | CCC(CC)COC(=O)[C@H](C)N[P@](=O)(OC[C@H]1O[C@@](C#N)(c2ccc3c(N)ncnn23)[C@H](O)[C@@H]1O)Oc1ccccc1 [Remdesivir, remdesivir] |  |  | no apparent cytotoxicity |  |  |  |  |  |  |  | 
